From patent US20170128518A1, “METHODS AND MATERIALS FOR IDENTIFYING AND TREATING MAMMALS RESISTANT TO PROTEASOME INHIBITOR TREATMENTS” (Mayo Foundation for Medical Education and Research, priority 2014, published 2017)
“Also recorded” adds a separate entry of the source. Peptide text beside a SMILES is read from it. * marks the point of attachment. Cbz = O=C(OCc1ccccc1)*; CH2F = FC*

What was measured:
BCWM.1 cell line = assay: MTS viability assay, BCWM.1; format: cell-based, human
Method: (§1) FIGS. 4A-4D show the characterization of BR WM models, established by subjecting WM cancer cell lines (n=3) chronic drug exposure. […] FIG. 4C is a graph plotting relative fluorescence units in an assay to examine PSMB5 enzyme function by flow cytometry.
(§2) Twenty thousand cells/200 μl in quadruplicates were incubated with serially diluted b-AP15 (1-1000 nmol/l) in 96-well plates at 37° C. for 72 hours. MTS (3-(4,5-dimethylthiazol-2-yl)-5-(3-carboxymethoxyphenyl)-2-(4-sulfophenyl)-2H-tetrazolium) reagent (Molecular Probes, Eugene, Oreg.) was added at 40 μl/well and the plates were further incubated at 37° C. for 3 hours and the developed color was read at 490 nm using a BioTek synergy HT plate reader against blanks with no cells.

β5/PSMB5 = β5/PSMB5 (Homo sapiens, UniProt P28074); assay: 26S proteasome activity, Suc-LLVY-AMC cleavage, WT and BR plasma cell cancer cells; format: biochemical; settings: in the presence of bortezomib
Method: FIGS. 3A-3C are a series of graphs showing that bortezomib resistance is associated with increased proteasomal enzymatic activity.
Studies were performed to investigate whether an increase in β1i and β5 proteins corresponded with increased protease activity. WT and BR cancer cells were incubated with β1i specific (Ac-PAL-AMC substrate) and β5 specific (Suc-LLVY-AMC substrate) fluorogenic peptides (condition details in FIG. 3 description above). β5 chymotryptic activity (primary target of bortezomib) was assessed first and found in BR cells.

MCL patients = settings: bortezomib-based therapies; cited from earlier work
RPCI-WM1/BR = assay: MTS viability assay, RPCI-WM1/BR; format: cell-based, human; settings: Homo sapiens, MTS assay
Method: as §2

[1] = test system: BR human MM and WM cell lines; assay: Growth insensitivity of BR cell lines vs WT counterparts; format: cell-based; settings: BR cell lines compared to respective WT counterparts
Text: (§3) To investigate the mechanism of induction of bortezomib resistance, preclinical models of acquired bortezomib resistance (BR) were developed using human MM and WM cell lines.

MWCL-1/BR = assay: MTS viability assay, MWCL-1/BR; format: cell-based, human; settings: Homo sapiens; MTS assay, MWCL-1/BR
Method: as §2

OPM2 cell line (WT) = assay: MTS assay, OPM2 WT; format: cell-based; settings: Homo sapiens, OPM-2
Text: (§4) FIGS. 1A-1C show the characterization of bortezomib-resistance (BR) models, established by subjecting plasma cell cancer cell lines (n=6) chronic drug exposure. FIG. 1A is a graph plotting the results of an MTS assay for an OPM2 cell line (representative model).
as §3

BCWM.1/BR = assay: MTS viability assay, BCWM.1/BR; format: cell-based, human
Method: as §1, §2

[2] = molecular target: T1, 20S proteasome b5 subunit (Homo sapiens, UniProt P28074); assay: Proteasomal activity assay, chymotrypsin-like (LLVY-AMC), WM cells; format: biochemical; settings: 10 nmol/l; WT and BR WM cells
T1 construct: Cells were lysed at 4×10^6 cells/ml in proteasomal activity assay buffer; endogenous in cells; host or cells: BCWM.1, MWCL-1, RPCI-WM1 and their BR subclones (lysates)
T1 sequence (P28074 60-263): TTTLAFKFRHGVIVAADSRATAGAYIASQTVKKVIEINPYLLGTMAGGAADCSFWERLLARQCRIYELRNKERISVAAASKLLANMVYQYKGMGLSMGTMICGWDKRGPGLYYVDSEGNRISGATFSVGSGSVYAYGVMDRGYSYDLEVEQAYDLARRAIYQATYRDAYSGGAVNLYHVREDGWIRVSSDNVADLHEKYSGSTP
Method: FIGS. 10A and 10B are a series of graphs plotting the effect of b-AP15 treatment on 20S proteasome, b5-subunit (chymotrypsin-like) catalytic activity in WT and BR WM cells.
Cells were lysed at 4×10^6 cells/ml in proteasomal activity assay buffer [assay buffer; 25 mmol/1 HEPES buffer, pH7.5 containing 0.5 mmol/1 EDTA, 0.05% Nonidet P-40, 0.01% sodium dodecyl sulfate (SDS)] and immediately used in the assay. Enzyme reactions were performed in 96-well plates with 100 μl of final volume containing […] fluorogenic peptide substrates. The substrates used were LLVY-AMC for chymotrypsin like activity, LLE-AMC for caspase-like activity and LRR-AMC for trypsin-like activity. Reactions were incubated at 37° C. for 1 hour and fluorescence was measured at 360/460 using a BioTek synergy HT plate reader (BioTek, Winooski, Vt.).

MWCL-1 cells = assay: MTS viability assay, MWCL-1; format: cell-based, human; settings: Homo sapiens, MTS assay
Method: as §2

[3] = test system: treatment naïve MM patients; settings: bortezomib-based therapies; cited from earlier work
RPCI-WM1 = assay: MTS viability assay, RPCI-WM1; format: cell-based, human; settings: Homo sapiens, MTS assay
Method: as §2

OPM2 BR derivative = assay: MTS assay, OPM2 BR derivative; format: cell-based; settings: Homo sapiens, OPM-2
Text: as §4, §3

WT and BR WM cells = assay: Mitochondrial outer membrane permeability (TMRM), WM cell lines; format: cell-based, human; settings: pre-treatment with pan-caspase inhibitor
Method: Cells were treated with different agents for 48 hours and assessed for MOMP using tetramethylrhodamine methyl ester [TMRM] (Life Technologies). TMRM was directly added to the cell cultures at 100 nmol/1 concentrations and incubated at 37° C. in the dark for 15 minutes. At the end of the incubation, cells were washed twice with cold PBS containing 2% FBS and analyzed. The cells were washed for fluorescence (FL2) and analyzed by BD Accuri, the C6 flow cytometer and its software. Data from at least 20,000 events per sample were collected and analyzed. TMRM-negative (%) cells were calculated to determine % MOMP.

[4] = test system: bortezomib or carfilzomib-resistant MM and WM cell lines; assay: VLX1570-sensitivity screen (Celltiter Glo viability assay); format: cell-based, human; settings: bortezomib/carfilzomib-resistant tumor cells
Text: FIG. 5 is a graph plotting sensitivity of bortezomib or carfilzomib-resistant tumor cells to drugs with a mechanism directed at targets upstream of the 20S proteasome. An inhibitor of the deubiquitinase (DUB) enzymes located in the 19S cap of the proteasome that are upstream of β5 and β1i, was used.

For CC(C)C[C@H](NC(=O)[C@H](Cc1ccccc1)NC(=O)c1cnccn1)B(O)O [bortezomib], the IC50 (BCWM.1 cell line; Homo sapiens, BCWM1, MTS assay) was 0.018 µM, the IC50 (BCWM.1 cell line; MTS assay) was 0.0114 µM and the “chymotryptic β5 activity” value (β5/PSMB5) was “decreased; also recorded: inhibited the chymotryptic activity; also recorded: nearly abrogated”. For the same compound, the response rate (MCL patients) was “about 75%”, the IC50 (RPCI-WM1/BR) was 0.125 µM and the “increase in growth insensitivity, BR vs WT” value [1] was > 100 fold. For the same compound, the IC50 (MWCL-1/BR) was 0.0652 µM, the IC50 (OPM2 cell line (WT)) was 0.00614 µM and the IC50 (BCWM.1/BR; Homo sapiens, BCWM1, MTS assay) was > 1 µM. The IC50 (BCWM.1/BR; MTS assay) was 0.72 µM, the “chymotrypsin-like activity (LLVY) of the b5 subunit” value [2] was “significantly diminished” and the IC50 (MWCL-1 cells) was 0.0166 µM. The response rate [3] was “about 100%”, the IC50 (RPCI-WM1) was 0.027 µM and the IC50 (OPM2 BR derivative) was > 0.05 µM.

For COC(=O)C[C@H](NC(=O)[C@H](C)NC(=O)[C@@H](NC(=O)OCc1ccccc1)C(C)C)C(=O)CF [z.VAD.fmk] (Cbz-Val-Ala-Asp(OMe)-CH2F), the “MOMP in b-AP15 co-treated WM cells” value (WT and BR WM cells) was “significantly reduced MOMP”.

In the case of C=CC(=O)N1CC/C(=C\c2ccc(F)c([N+](=O)[O-])c2)C(=O)/C(=C/c2ccc(F)c([N+](=O)[O-])c2)C1 [VLX1570], the cytotoxicity [4] is reported as “comparable cytotoxicity”.

For CC(C)C[C@H](NC(=O)[C@H](CCc1ccccc1)NC(=O)CN1CCOCC1)C(=O)N[C@@H](Cc1ccccc1)C(=O)N[C@@H](CC(C)C)C(=O)[C@@]1(C)CO1 [carfilzomib], the “chymotrypsin-like activity (LLVY) of the b5 subunit” value [2] was “significantly diminished”.
